The values that follow are results of earlier work, collected in patent US7943663B2, “Process and an apparatus for producing episesamin-rich compositions” (Suntory Holdings Limited, priority 2005, dated 2011).

The test system of series [1] is fatty acid synthases. To be noted: rats, separately administered orally; sesamin versus episesamin.
For series [2] the following is noted: rat, po.
The subject of series [3] is β-oxidation enzymes in the liver. To be noted: rats, separately administered orally; compared with sesamin.

Regarding `c1cc2c(cc1[C@H]1OC[C@H]3[C@@H]1CO[C@H]3c1ccc3c(c1)OCO3)OCO2` [Episesamin, episesamin], in series [1], the “activity for inhibiting fatty acid synthases” value is “no difference”. The “transfer into organs (in vivo distribution)” value in series [2] was “at least twice as much as that of sesamin”. Further, the “gene expression and enzymatic activity of β-oxidation enzymes in the liver” value in series [3] is “markedly increased”.
Turning to `c1cc2c(cc1[C@H]1OC[C@H]3[C@@H]1CO[C@@H]3c1ccc3c(c1)OCO3)OCO2` [Sesamin, sesamin], the “activity for inhibiting fatty acid synthases” value in series [1] is reported as “no difference”.
